Source: patent US20250122183A1 (Pfizer Inc., priority 2023, published 2025)

Assays:
KAT6A Full length enzyme = KAT6A Full length enzyme (Homo sapiens (Human), UniProt Q92794); test: KAT6A assay (SAMDI-MS acetylation of H3 1-21 peptide); type: biochemical; conditions: Morrison equation fit; replicate number in parentheses; read-out: KAT6A Ki (nM) (replicate number)
[1] = biological target: KAT7+JADE1+EAF6+ING5 4 protein complex (Homo sapiens (Human), UniProt O95251); test: KAT7 JADE1 assay (SAMDI-MS acetylation of H3 1-21 peptide); type: biochemical; conditions: Morrison equation fit; replicate number in parentheses; read-out: KAT7 JADE1 Ki (nM) (replicate number)

KAT6A Full length enzyme, sequence (Q92794 other isoform, or with tags, fused parts or gaps): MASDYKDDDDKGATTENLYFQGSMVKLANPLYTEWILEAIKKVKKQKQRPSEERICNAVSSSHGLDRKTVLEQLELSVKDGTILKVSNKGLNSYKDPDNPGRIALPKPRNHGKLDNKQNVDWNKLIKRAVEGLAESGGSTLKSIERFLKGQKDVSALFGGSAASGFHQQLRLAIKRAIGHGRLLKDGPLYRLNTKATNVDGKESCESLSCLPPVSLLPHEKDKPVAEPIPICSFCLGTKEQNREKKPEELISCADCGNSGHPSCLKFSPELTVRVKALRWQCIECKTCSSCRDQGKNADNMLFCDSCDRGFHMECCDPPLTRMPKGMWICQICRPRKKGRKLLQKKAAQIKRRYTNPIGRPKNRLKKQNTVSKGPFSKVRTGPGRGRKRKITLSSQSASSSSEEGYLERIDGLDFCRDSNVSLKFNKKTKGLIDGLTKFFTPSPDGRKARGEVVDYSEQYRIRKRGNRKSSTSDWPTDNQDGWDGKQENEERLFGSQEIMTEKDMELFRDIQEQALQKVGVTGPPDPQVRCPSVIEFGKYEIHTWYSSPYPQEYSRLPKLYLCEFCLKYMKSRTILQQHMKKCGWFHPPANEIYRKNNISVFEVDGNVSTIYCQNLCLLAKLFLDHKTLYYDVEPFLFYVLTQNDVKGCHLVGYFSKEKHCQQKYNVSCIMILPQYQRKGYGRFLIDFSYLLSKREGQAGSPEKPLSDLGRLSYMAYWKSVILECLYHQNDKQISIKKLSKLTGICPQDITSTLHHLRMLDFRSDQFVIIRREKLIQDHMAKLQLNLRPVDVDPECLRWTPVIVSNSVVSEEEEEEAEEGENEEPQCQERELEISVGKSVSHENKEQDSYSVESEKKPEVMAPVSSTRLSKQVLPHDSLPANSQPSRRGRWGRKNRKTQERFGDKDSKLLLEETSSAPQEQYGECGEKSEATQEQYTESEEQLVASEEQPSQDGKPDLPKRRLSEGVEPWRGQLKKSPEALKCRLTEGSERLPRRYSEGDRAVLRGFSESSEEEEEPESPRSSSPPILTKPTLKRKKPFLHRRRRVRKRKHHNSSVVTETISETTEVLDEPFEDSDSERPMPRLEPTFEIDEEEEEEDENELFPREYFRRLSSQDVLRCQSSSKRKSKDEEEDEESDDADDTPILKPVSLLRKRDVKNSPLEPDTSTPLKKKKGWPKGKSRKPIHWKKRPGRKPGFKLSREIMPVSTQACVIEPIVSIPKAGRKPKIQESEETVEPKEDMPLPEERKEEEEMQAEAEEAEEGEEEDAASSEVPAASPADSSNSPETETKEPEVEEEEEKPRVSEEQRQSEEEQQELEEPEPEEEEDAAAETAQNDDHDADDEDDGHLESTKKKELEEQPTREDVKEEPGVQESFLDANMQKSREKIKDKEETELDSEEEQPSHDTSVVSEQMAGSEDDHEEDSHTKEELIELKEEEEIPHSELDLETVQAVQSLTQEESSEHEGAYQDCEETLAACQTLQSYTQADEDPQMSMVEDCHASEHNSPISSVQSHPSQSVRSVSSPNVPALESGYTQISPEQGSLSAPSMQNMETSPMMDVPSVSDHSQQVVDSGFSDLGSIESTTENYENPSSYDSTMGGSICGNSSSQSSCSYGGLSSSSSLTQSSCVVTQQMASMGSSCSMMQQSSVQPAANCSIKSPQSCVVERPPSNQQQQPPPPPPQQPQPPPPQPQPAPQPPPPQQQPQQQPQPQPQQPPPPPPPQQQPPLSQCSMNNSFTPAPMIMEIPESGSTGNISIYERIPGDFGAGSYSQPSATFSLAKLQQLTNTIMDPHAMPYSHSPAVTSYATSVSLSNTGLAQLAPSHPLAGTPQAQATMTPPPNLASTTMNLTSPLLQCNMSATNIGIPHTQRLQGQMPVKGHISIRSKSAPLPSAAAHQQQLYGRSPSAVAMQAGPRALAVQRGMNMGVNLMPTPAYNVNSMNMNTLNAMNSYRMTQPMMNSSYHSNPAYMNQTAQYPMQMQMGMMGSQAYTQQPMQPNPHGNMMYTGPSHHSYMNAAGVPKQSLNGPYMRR

SMILES | Ki (KAT6A Full length enzyme) | Ki [1]
COc1cc2c(NS(=O)(=O)c3c(OC)cc(C4CN(C5CCOC5)C4)cc3OC)noc2cc1Nc1cc(C2CC2)n[nH]1 (racemic) [Example 187, N-{6-[(3-cyclopropyl-1H-pyrazol-5-yl)amino]-5-methoxy-1,2-benzoxazol-3-yl]-2,6-dimethoxy-4-[1-(oxolan-3-yl)azetidin-3-yl]benzene-1-sulfonamide] | 2.2 nM | 13.1 nM
COc1cc2c(NS(=O)(=O)c3c(OC)cc(C4CCCCO4)cc3OC)noc2cc1Nc1cc(C2CC2)n[nH]1 (single isomer, unassigned) [Example 142, N-{6-[(3-cyclopropyl-1 H-pyrazol-5-yl)amino]-5-methoxy-1,2-benzoxazol-3-yl}-2,6-dimethoxy-4-(oxan-2-yl)benzene-1-sulfonamide] | 0.7 nM | 6.7 nM
COc1cc2c(NS(=O)(=O)c3c(OC)cc(C4CCN(C)C4)cc3OC)noc2cc1Nc1cc(C2CC2)n[nH]1 (single isomer, unassigned) [Example 147, N-{6-[(3-cyclopropyl-1 H-pyrazol-5-yl)amino]-5-methoxy-1,2-benzoxazol-3-yl}-2,6-dimethoxy-4-(1-methylpyrrolidin-3-yl)benzene-1-sulfonamide] | 1.6 nM | 12.1 nM
CCN1CCOC(c2cc(OC)c(S(=O)(=O)Nc3noc4cc(Nc5cc(C6CC6)n[nH]5)c(OC)cc34)c(OC)c2)C1 (single isomer, unassigned) [Example 156, N-{6-[(3-cyclopropyl-1 H-pyrazol-5-yl)amino]-5-methoxy-1,2-benzoxazol-3-yl}-4-(4-ethylmorpholin-2-yl)-2,6-dimethoxybenzene-1-sulfonamide] | 0.8 nM | 4 nM
CCN1CCOC(c2cc(OC)c(S(=O)(=O)Nc3noc4cc(Nc5cc(C6CC6)n[nH]5)c(OC)cc34)c(OC)c2)C1 (single isomer, unassigned) [Example 157, N-{6-[(3-cyclopropyl-1 H-pyrazol-5-yl)amino]-5-methoxy-1,2-benzoxazol-3-yl}-4-(4-ethylmorpholin-2-yl)-2,6-dimethoxybenzene-1-sulfonamide] | 2.5 nM | 11.6 nM
COc1cc2c(NS(=O)(=O)c3c(OC)cc(C4CCCN([C@@H]5CCOC5)C4)cc3OC)noc2cc1Nc1cc(C2CC2)n[nH]1 (single isomer, unassigned) [Example 158] | 1.2 nM | 8.7 nM
COc1cc2c(NS(=O)(=O)c3c(OC)cc(C4CCCN([C@@H]5CCOC5)C4)cc3OC)noc2cc1Nc1cc(C2CC2)n[nH]1 (single isomer, unassigned) [Example 159] | 1.1 nM | 7 nM
COc1cc2c(NS(=O)(=O)c3c(OC)cc(C4CCN([C@@H]5CCOC5)C4)cc3OC)noc2cc1Nc1cc(C2CC2)n[nH]1 (single isomer, unassigned) [Example 160] | 1 nM | 6.9 nM
COc1cc2c(NS(=O)(=O)c3c(OC)cc(C4CCN([C@@H]5CCOC5)C4)cc3OC)noc2cc1Nc1cc(C2CC2)n[nH]1 (single isomer, unassigned) [Example 161] | 1.2 nM | 5.5 nM
COc1cc2c(NS(=O)(=O)c3c(OC)cc(C4CCN([C@H]5CCOC5)C4)cc3OC)noc2cc1Nc1cc(C2CC2)n[nH]1 (single isomer, unassigned) [Example 162] | 1.2 nM | 8.9 nM
COc1cc2c(NS(=O)(=O)c3c(OC)cc(C4CCN([C@H]5CCOC5)C4)cc3OC)noc2cc1Nc1cc(C2CC2)n[nH]1 (single isomer, unassigned) [Example 163] | 1.4 nM | 8.2 nM
COc1cc2c(NS(=O)(=O)c3c(OC)cc(C4CCCN4CC(F)F)cc3OC)noc2cc1Nc1cc(C2CC2)n[nH]1 (single isomer, unassigned) [Example 165, N-{6-[(3-cyclopropyl-1H-pyrazol-5-yl)amino]-5-methoxy-1,2-benzoxazol-3-yl}-4-[1-(2,2-difluoroethyl)pyrrolidin-2-yl]-2,6-dimethoxybenzene-1-sulfonamide] | 1.4 nM | 5 nM
COc1cc2c(NS(=O)(=O)c3c(OC)cc(C4CCCN4CC(F)F)cc3OC)noc2cc1Nc1cc(C2CC2)n[nH]1 (single isomer, unassigned) [Example 166, N-{6-[(3-cyclopropyl-1 H-pyrazol-5-yl)amino]-5-methoxy-1,2-benzoxazol-3-yl}-4-[1-(2,2-difluoroethyl)pyrrolidin-2-yl]-2,6-dimethoxybenzene-1-sulfonamide] | 1.6 nM | 8.5 nM
COc1cc2c(NS(=O)(=O)c3c(OC)cc(C4CCCN(CC(F)F)C4)cc3OC)noc2cc1Nc1cc(C2CC2)n[nH]1 (single isomer, unassigned) [Example 167, N-{6-[(3-cyclopropyl-1 H-pyrazol-5-yl)amino]-5-methoxy-1,2-benzoxazol-3-yl}-4-[1-(2,2-difluoroethyl)piperidin-3-yl]-2,6-dimethoxybenzene-1-sulfonamide] | 0.9 nM | 4 nM
COc1cc2c(NS(=O)(=O)c3c(OC)cc(C4CCCN(CC(F)F)C4)cc3OC)noc2cc1Nc1cc(C2CC2)n[nH]1 (single isomer, unassigned) [Example 168, N-{6-[(3-cyclopropyl-1 H-pyrazol-5-yl)amino]-5-methoxy-1,2-benzoxazol-3-yl}-4-[1-(2,2-difluoroethyl)piperidin-3-yl]-2,6-dimethoxybenzene-1-sulfonamide] | 0.8 nM | 2.7 nM
COc1cc2c(NS(=O)(=O)c3c(OC)cc(C4CCCN(CC(F)(F)F)C4)cc3OC)noc2cc1Nc1cc(C2CC2)n[nH]1 (single isomer, unassigned) [Example 169, N-{6-[(3-cyclopropyl-1 H-pyrazol-5-yl)amino]-5-methoxy-1,2-benzoxazol-3-yl}-2,6-dimethoxy-4-[1-(2,2,2-trifluoroethyl)piperidin-3-yl]benzene-1-sulfonamide] | 0.5 nM | –
COc1cc2c(NS(=O)(=O)c3c(OC)cc(C4CCCN(CC(F)(F)F)C4)cc3OC)noc2cc1Nc1cc(C2CC2)n[nH]1 (single isomer, unassigned) [Example 170, N-{6-[(3-cyclopropyl-1 H-pyrazol-5-yl)amino]-5-methoxy-1,2-benzoxazol-3-yl}-2,6-dimethoxy-4-[1-(2,2,2-trifluoroethyl)piperidin-3-yl]benzene-1-sulfonamide] | 0.4 nM | –
COc1cc2c(NS(=O)(=O)c3c(OC)cc(C4CCCCN4C)cc3OC)noc2cc1Nc1cc(C2CC2)n[nH]1 (single isomer, unassigned) [Example 171, N-{6-[(3-cyclopropyl-1 H-pyrazol-5-yl)amino]-5-methoxy-1,2-benzoxazol-3-yl}-2,6-dimethoxy-4-(1-methylpiperidin-2-yl)benzene-1-sulfonamide] | 2.1 nM | 8.4 nM
COc1cc2c(NS(=O)(=O)c3c(OC)cc(C4CCCCN4C)cc3OC)noc2cc1Nc1cc(C2CC2)n[nH]1 (single isomer, unassigned) [Example 172, N-{6-[(3-cyclopropyl-1 H-pyrazol-5-yl)amino]-5-methoxy-1,2-benzoxazol-3-yl}-2,6-dimethoxy-4-(1-methylpiperidin-2-yl)benzene-1-sulfonamide] | 4.4 nM | 34.1 nM
CCN1CCCCC1c1cc(OC)c(S(=O)(=O)Nc2noc3cc(Nc4cc(C5CC5)n[nH]4)c(OC)cc23)c(OC)c1 (single isomer, unassigned) [Example 173, N-{6-[(3-cyclopropyl-1 H-pyrazol-5-yl)amino]-5-methoxy-1,2-benzoxazol-3-yl}-4-(1-ethylpiperidin-2-yl)-2,6-dimethoxybenzene-1-sulfonamide] | 7.5 nM | 114 nM
CCN1CCCCC1c1cc(OC)c(S(=O)(=O)Nc2noc3cc(Nc4cc(C5CC5)n[nH]4)c(OC)cc23)c(OC)c1 (single isomer, unassigned) [Example 174, N-{6-[(3-cyclopropyl-1 H-pyrazol-5-yl)amino]-5-methoxy-1,2-benzoxazol-3-yl}-4-(1-ethylpiperidin-2-yl)-2,6-dimethoxybenzene-1-sulfonamide] | 4.4 nM | 27.3 nM
COc1cc2c(NS(=O)(=O)c3c(OC)cc(C4CN(C)CCC4(F)F)cc3OC)noc2cc1Nc1cc(C2CC2)n[nH]1 (single isomer, unassigned) [Example 175, N-{6-[(3-cyclopropyl-1 H-pyrazol-5-yl)amino]-5-methoxy-1,2-benzoxazol-3-yl}-4-(4,4-difluoro-1-methylpiperidin-3-yl)-2,6-dimethoxybenzene-1-sulfonamide] | 0.4 nM | 1 nM
COc1cc2c(NS(=O)(=O)c3c(OC)cc(C4COCCN4C)cc3OC)noc2cc1Nc1cc(C2CC2)[nH]n1 (single isomer, unassigned) [Example 179, N-{6-[(5-cyclopropyl-1 H-pyrazol-3-yl)amino]-5-methoxy-1,2-benzoxazol-3-yl}-2,6-dimethoxy-4-(4-methylmorpholin-3-yl)benzene-1-sulfonamide] | 1 nM | 8.6 nM
CCN1CCCC1c1cc(OC)c(S(=O)(=O)Nc2noc3cc(Nc4cc(C5CC5)[nH]n4)c(OC)cc23)c(OC)c1 (single isomer, unassigned) [Example 190, N-{6-[(5-cyclopropyl-1 H-pyrazol-3-yl)amino]-5-methoxy-1,2-benzoxazol-3-yl}-4-(1-ethylpyrrolidin-2-yl)-2,6-dimethoxybenzene-1-sulfonamide] | 5.6 nM | 54.5 nM
CCN1CCCC1c1cc(OC)c(S(=O)(=O)Nc2noc3cc(Nc4cc(C5CC5)[nH]n4)c(OC)cc23)c(OC)c1 (single isomer, unassigned) [Example 191, N-{6-[(5-cyclopropyl-1 H-pyrazol-3-yl)amino]-5-methoxy-1,2-benzoxazol-3-yl}-4-(1-ethylpyrrolidin-2-yl)-2,6-dimethoxybenzene-1-sulfonamide] | 2.3 nM | 15.4 nM
COc1cc2c(NS(=O)(=O)c3c(OC)cccc3OC)noc2cc1Nc1cc(C2CC2)nn1C [Example 48, N-{6-[(3-cyclopropyl-1-methyl-1H-pyrazol-5-yl)amino]-5-methoxy-1,2-benzoxazol-3-yl}-2,6-dimethoxybenzene-1-sulfonamide] | – | > 12500 nM
